Test results published in the NIST ThermoML archive (doi:10.1016/j.jct.2016.10.021).

Assays:
[1] = for surface tension liquid-gas: Pendant drop shape; for viscosity / mass density: 101.33 kPa, Liquid; for viscosity: Concentric cylinders viscometry; for mass density: Vibrating tube method
[2] = wn = mass fraction of the nth substance listed; details: 303.15 K; for surface tension liquid-gas: Pendant drop shape; for viscosity / mass density: 100 kPa, Liquid; for viscosity: Concentric cylinders viscometry; for mass density: Vibrating tube method

C1CCC2=NCCC[NH+]2CC1.CS(=O)(=O)[O-] [1,8-diazabicyclo[5.4.0]undec-7-enium methanesulfonate]
[1]
Details	mass density [kg/m3]	surface tension liquid-gas [mN/m]	viscosity [mPa·s]
293.15 K	1226.6	41.84	3310.1
303.15 K	1219.8	41.35	1177
313.15 K	1212.9	40.49	497.53
323.15 K	1206.1	39.58	241.49
333.15 K	1199.5	38.79	131.6
343.15 K	1193	38.23	78.46
353.15 K	1186.5	37.54	50.26
363.15 K	1180.2	–	34.12

C1CCC2=[NH+]CCCN2CC1.O=S(=O)([O-])C(F)(F)F + O
[2]
Details	mass density [kg/m3]	surface tension liquid-gas [mN/m]	viscosity [mPa·s]
w2 = 0.001106	1352.7	29.8	524.23
w2 = 0.002067	1352.2	29.74	524.18
w2 = 0.003286	1351.6	29.66	524.11
w2 = 0.004194	1351.1	29.6	524.06
w2 = 0.005671	1350.5	29.51	523.99

C1CCC2=[NH+]CCCN2CC1.O=S(=O)([O-])C(F)(F)F
[1]
Details	mass density [kg/m3]	surface tension liquid-gas [mN/m]	viscosity [mPa·s]
293.15 K	1361	30.39	1113.1
303.15 K	1352.7	29.8	524.23
313.15 K	1344.5	29.27	276
323.15 K	1336.7	28.83	158.89
333.15 K	1329	28.31	98.25
343.15 K	1321.2	27.71	64.4
353.15 K	1313.5	27.15	44.29
363.15 K	1305.9	–	31.75

C1CCC2=[NH+]CCCN2CC1.CC(=O)[O-] [2,3,4,6,7,8,9,10-octahydropyrimido[1,2-a]azepinium acetate]
[1]
Details	mass density [kg/m3]	surface tension liquid-gas [mN/m]	viscosity [mPa·s]
293.15 K	1076	36.88	164.74
303.15 K	1069.1	35.94	84.73
313.15 K	1062.3	34.6	48.34
323.15 K	1055.6	33.47	30.38
333.15 K	1048.7	32.38	20.36
343.15 K	1041.8	31.46	14.39
353.15 K	1034.9	30.63	10.59
363.15 K	1028	–	8.052

C1CCC2=NCCC[NH+]2CC1.O=C([O-])C(F)(F)F [1,8-diazabicyclo[5.4.0]undec-7-enium trifluoroacetate] + O
[2]
Details	mass density [kg/m3]	surface tension liquid-gas [mN/m]	viscosity [mPa·s]
w2 = 0.001118	1256.6	31.98	493.76
w2 = 0.002196	1256.2	32.01	493.59
w2 = 0.003948	1255.7	32.06	493.33
w2 = 0.005067	1255.2	32.09	493.17
w2 = 0.006935	1254.6	32.14	492.85

C1CCC2=[NH+]CCCN2CC1.CC(=O)[O-] [2,3,4,6,7,8,9,10-octahydropyrimido[1,2-a]azepinium acetate] + O
[2]
Details	mass density [kg/m3]	surface tension liquid-gas [mN/m]	viscosity [mPa·s]
w2 = 0.001127	1069.1	35.94	84.73
w2 = 0.002156	1068.4	35.99	84.7
w2 = 0.003932	1066.9	36.09	84.66
w2 = 0.005106	1065.9	36.15	84.62
w2 = 0.006373	1065	36.23	84.59

C1CCC2=NCCC[NH+]2CC1.CS(=O)(=O)[O-] [1,8-diazabicyclo[5.4.0]undec-7-enium methanesulfonate] + O
[2]
Details	mass density [kg/m3]	surface tension liquid-gas [mN/m]	viscosity [mPa·s]
w2 = 0.001054	1219.8	41.35	1177
w2 = 0.001987	1219.37	41.43	1176.8
w2 = 0.003524	1218.75	41.56	1176.5
w2 = 0.004663	1218.3	41.69	1176.3
w2 = 0.005967	1217.81	41.78	1176.1

C1CCC2=NCCC[NH+]2CC1.O=C([O-])C(F)(F)F [1,8-diazabicyclo[5.4.0]undec-7-enium trifluoroacetate]
[1]
Details	mass density [kg/m3]	surface tension liquid-gas [mN/m]	viscosity [mPa·s]
293.15 K	1264.6	32.47	1193.2
303.15 K	1256.6	31.98	493.76
313.15 K	1248.9	31.52	236.97
323.15 K	1241.4	31.05	127.92
333.15 K	1234	30.65	75.72
343.15 K	1226.6	30.15	48.46
353.15 K	1219.2	29.74	32.94
363.15 K	1211.9	–	23.43
